pIC50: −log10 of the molar value. Read-outs that look alike come from different tables or passages of the source.
Experiments:
Type in all cases: cell-based
human NaV1.7 = human NaV1.7 (Homo sapiens, UniProt Q15858); experiment: IonWorks Quattro (IWQ) electrophysiology, human NaV1.7
human NaV1.5 = human NaV1.5 (Homo sapiens, UniProt Q14524); experiment: IonWorks Quattro (IWQ) electrophysiology, human NaV1.5
human NaV1.4 = human NaV1.4 (Homo sapiens, UniProt P35499); experiment: IonWorks Quattro (IWQ) electrophysiology, human NaV1.4
human NaV1.4, sequence (P35499 whole entry): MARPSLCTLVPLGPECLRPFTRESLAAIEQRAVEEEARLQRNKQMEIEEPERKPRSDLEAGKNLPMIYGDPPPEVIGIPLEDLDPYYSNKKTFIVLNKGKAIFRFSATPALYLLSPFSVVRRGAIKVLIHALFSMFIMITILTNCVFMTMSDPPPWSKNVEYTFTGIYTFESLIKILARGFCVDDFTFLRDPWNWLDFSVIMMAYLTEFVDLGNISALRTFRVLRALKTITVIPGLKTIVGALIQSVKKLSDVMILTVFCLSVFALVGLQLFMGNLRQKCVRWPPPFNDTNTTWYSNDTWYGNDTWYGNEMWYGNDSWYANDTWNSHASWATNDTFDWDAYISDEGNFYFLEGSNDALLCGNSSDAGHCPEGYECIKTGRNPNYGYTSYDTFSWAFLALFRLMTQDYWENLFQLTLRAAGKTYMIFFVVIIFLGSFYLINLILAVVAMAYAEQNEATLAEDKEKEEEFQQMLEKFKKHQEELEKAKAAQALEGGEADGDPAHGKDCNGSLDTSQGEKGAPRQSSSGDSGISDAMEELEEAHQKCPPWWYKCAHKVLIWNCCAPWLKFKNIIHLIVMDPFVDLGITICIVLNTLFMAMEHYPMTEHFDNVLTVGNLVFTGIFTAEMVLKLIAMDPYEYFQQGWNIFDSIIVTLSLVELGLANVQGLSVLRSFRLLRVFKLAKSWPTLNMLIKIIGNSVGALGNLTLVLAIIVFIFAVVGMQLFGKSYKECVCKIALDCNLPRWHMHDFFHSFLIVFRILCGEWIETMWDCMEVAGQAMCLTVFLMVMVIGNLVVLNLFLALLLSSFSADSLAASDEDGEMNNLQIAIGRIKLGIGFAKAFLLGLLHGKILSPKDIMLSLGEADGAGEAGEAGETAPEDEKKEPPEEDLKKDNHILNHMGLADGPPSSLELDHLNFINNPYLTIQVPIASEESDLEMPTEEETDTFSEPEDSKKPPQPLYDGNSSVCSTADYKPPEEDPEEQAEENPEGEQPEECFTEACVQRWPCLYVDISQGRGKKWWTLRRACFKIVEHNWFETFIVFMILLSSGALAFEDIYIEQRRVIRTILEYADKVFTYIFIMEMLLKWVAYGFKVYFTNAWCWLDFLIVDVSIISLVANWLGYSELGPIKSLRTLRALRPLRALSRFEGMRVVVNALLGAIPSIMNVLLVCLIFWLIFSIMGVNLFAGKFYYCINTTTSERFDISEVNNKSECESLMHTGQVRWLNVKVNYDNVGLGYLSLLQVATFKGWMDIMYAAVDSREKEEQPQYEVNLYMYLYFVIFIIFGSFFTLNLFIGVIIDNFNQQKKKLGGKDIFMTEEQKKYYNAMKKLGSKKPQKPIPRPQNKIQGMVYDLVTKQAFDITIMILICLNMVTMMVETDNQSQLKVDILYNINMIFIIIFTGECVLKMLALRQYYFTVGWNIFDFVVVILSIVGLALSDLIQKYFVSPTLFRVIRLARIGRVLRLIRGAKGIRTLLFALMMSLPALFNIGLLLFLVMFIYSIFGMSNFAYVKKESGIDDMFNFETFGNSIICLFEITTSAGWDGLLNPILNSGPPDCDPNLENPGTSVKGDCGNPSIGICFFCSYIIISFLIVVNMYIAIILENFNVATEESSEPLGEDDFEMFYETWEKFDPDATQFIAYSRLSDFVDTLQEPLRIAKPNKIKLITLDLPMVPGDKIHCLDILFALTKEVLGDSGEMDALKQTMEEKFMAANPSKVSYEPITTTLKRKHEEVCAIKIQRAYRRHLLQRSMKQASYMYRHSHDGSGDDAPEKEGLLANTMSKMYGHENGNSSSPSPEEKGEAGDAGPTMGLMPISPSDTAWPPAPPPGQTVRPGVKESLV

[1] = read-out: Ala mutant IWQ IC50 NaV1.7
[2] = read-out: Ala mutant IWQ IC50 NaV1.5
[3] = read-out: Ala mutant IWQ IC50 NaV1.4
[4] = read-out: Glu mutant IWQ IC50 NaV1.7
[5] = read-out: Glu mutant IWQ IC50 NaV1.5
[6] = read-out: Glu mutant IWQ IC50 NaV1.4

human NaV1.5, sequence (Q14524 whole entry): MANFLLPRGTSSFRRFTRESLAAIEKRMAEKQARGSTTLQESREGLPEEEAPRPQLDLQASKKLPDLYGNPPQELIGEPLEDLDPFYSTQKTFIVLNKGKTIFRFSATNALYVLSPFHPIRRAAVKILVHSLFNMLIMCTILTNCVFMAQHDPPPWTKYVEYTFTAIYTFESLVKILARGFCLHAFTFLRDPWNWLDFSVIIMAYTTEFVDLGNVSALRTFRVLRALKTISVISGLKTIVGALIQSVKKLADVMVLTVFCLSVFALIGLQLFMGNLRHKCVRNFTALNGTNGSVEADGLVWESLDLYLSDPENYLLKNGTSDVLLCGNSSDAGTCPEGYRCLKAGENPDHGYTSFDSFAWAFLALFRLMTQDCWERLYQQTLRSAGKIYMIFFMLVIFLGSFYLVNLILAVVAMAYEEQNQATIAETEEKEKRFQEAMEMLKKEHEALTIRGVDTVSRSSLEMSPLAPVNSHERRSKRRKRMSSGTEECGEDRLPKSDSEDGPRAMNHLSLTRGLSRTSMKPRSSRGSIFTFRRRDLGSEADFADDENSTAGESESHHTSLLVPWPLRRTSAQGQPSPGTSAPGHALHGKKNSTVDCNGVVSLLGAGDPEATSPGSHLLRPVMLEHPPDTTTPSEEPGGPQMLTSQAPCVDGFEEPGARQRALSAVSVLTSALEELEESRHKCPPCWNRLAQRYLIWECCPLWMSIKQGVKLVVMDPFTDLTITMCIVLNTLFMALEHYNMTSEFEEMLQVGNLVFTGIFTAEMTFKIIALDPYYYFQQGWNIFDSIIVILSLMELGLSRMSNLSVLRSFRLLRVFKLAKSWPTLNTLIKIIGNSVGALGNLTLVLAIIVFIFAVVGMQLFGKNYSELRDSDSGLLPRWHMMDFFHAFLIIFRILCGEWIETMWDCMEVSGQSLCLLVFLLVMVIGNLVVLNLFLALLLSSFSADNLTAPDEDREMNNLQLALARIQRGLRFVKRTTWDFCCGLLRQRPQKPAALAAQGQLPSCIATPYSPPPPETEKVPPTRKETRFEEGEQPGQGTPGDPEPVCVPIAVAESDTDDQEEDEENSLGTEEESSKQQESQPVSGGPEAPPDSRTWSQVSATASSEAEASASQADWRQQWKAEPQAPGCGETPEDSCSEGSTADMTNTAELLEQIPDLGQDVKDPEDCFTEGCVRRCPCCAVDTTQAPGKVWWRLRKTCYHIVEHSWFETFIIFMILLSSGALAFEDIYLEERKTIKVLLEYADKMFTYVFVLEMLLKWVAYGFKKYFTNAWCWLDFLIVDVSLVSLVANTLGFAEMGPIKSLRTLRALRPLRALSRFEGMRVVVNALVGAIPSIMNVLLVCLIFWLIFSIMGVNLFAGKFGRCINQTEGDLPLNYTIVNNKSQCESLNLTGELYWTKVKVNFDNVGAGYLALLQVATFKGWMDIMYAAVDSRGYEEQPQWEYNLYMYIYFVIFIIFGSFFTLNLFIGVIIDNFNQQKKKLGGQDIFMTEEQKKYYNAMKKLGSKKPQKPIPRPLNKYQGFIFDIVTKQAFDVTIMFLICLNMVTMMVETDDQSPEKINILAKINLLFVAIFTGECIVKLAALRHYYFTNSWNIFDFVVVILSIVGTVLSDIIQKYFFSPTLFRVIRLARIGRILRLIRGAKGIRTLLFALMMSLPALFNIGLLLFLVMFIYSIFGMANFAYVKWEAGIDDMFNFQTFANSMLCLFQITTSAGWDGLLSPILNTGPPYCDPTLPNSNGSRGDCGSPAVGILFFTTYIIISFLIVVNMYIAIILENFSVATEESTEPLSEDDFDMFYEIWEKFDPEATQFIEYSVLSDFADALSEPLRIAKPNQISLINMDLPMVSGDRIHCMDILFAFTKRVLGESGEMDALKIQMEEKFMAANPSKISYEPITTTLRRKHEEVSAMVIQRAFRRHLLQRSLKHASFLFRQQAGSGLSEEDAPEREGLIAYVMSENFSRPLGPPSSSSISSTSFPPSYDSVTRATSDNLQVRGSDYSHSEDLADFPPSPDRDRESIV

CC[C@H](C)[C@H](NC(=O)[C@@H](NC(=O)[C@H](CCCCN)NC(=O)[C@H](CCCNC(=N)N)NC(=O)[C@@H]1CSSC[C@@H]2NC(=O)[C@H](C)NC(=O)[C@H](CCCNC(=N)N)NC(=O)[C@H](CCCCN)NC(=O)[C@H](CO)NC(=O)[C@H](C)NC(=O)[C@@H]3CSSC[C@H](NC(=O)[C@H](CCCNC(=N)N)NC(=O)[C@H](CC(C)C)NC(=O)CNC(=O)[C@H](CCC(=O)O)NC(=O)[C@H](CSSC[C@H](NC(=O)[C@@H](N)Cc4ccc(O)cc4)C(=O)N[C@@H](CCC(N)=O)C(=O)N[C@@H](CCCCN)C(=O)N[C@@H](Cc4c[nH]c5ccccc45)C(=O)N[C@@H](CCSC)C(=O)N[C@@H](Cc4c[nH]c5ccccc45)C(=O)N[C@@H]([C@@H](C)O)C(=O)N3)NC2=O)C(=O)N[C@@H](CCCCN)C(=O)N[C@@H](CC(C)C)C(=O)N[C@@H](Cc2c[nH]c3ccccc23)C(=O)N1)[C@@H](C)CC)C(N)=O [D10 Ala mutant]
pIC50 (human NaV1.7; [1]): 6.46 | pIC50 (human NaV1.5; [2]): < 5.00 | pIC50 (human NaV1.4; [3]): 6.04

CC[C@H](C)[C@H](NC(=O)[C@@H](NC(=O)[C@H](CCCCN)NC(=O)[C@H](CCCNC(=N)N)NC(=O)[C@@H]1CSSC[C@@H]2NC(=O)[C@H](C)NC(=O)[C@H](CCCNC(=N)N)NC(=O)[C@H](CCCCN)NC(=O)[C@H](CO)NC(=O)[C@H](CC(=O)O)NC(=O)[C@@H]3CSSC[C@H](NC(=O)[C@H](CCCNC(=N)N)NC(=O)[C@H](CC(C)C)NC(=O)CNC(=O)[C@H](CCC(=O)O)NC(=O)[C@H](CSSC[C@H](NC(=O)[C@@H](N)Cc4ccc(O)cc4)C(=O)N[C@@H](CCC(N)=O)C(=O)N[C@@H](CCCCN)C(=O)N[C@@H](C)C(=O)N[C@@H](CCSC)C(=O)N[C@@H](Cc4c[nH]c5ccccc45)C(=O)N[C@@H]([C@@H](C)O)C(=O)N3)NC2=O)C(=O)N[C@@H](CCCCN)C(=O)N[C@@H](CC(C)C)C(=O)N[C@@H](Cc2c[nH]c3ccccc23)C(=O)N1)[C@@H](C)CC)C(N)=O [W5 Ala mutant]
pIC50 (human NaV1.7; [1]): 5.81 | pIC50 (human NaV1.5; [2]): < 5.00 | pIC50 (human NaV1.4; [3]): < 5.00

CC[C@H](C)[C@H](NC(=O)[C@@H](NC(=O)[C@H](CCCCN)NC(=O)[C@H](C)NC(=O)[C@@H]1CSSC[C@@H]2NC(=O)[C@H](C)NC(=O)[C@H](CCCNC(=N)N)NC(=O)[C@H](CCCCN)NC(=O)[C@H](CO)NC(=O)[C@H](CC(=O)O)NC(=O)[C@@H]3CSSC[C@H](NC(=O)[C@H](CCCNC(=N)N)NC(=O)[C@H](CC(C)C)NC(=O)CNC(=O)[C@H](CCC(=O)O)NC(=O)[C@H](CSSC[C@H](NC(=O)[C@@H](N)Cc4ccc(O)cc4)C(=O)N[C@@H](CCC(N)=O)C(=O)N[C@@H](CCCCN)C(=O)N[C@@H](Cc4c[nH]c5ccccc45)C(=O)N[C@@H](CCSC)C(=O)N[C@@H](Cc4c[nH]c5ccccc45)C(=O)N[C@@H]([C@@H](C)O)C(=O)N3)NC2=O)C(=O)N[C@@H](CCCCN)C(=O)N[C@@H](CC(C)C)C(=O)N[C@@H](Cc2c[nH]c3ccccc23)C(=O)N1)[C@@H](C)CC)C(N)=O [R26 Ala mutant]
pIC50 (human NaV1.7; [1]): 5.62 | pIC50 (human NaV1.5; [2]): < 5.00 | pIC50 (human NaV1.4; [3]): < 5.00

CC[C@H](C)[C@H](NC(=O)[C@@H](NC(=O)[C@H](CCCCN)NC(=O)[C@H](CCCNC(=N)N)NC(=O)[C@@H]1CSSC[C@@H]2NC(=O)[C@H](C)NC(=O)[C@H](CCCNC(=N)N)NC(=O)[C@H](CCCCN)NC(=O)[C@H](CO)NC(=O)[C@H](CC(=O)O)NC(=O)[C@@H]3CSSC[C@H](NC(=O)[C@H](CCCNC(=N)N)NC(=O)[C@H](CC(C)C)NC(=O)CNC(=O)[C@H](CCC(=O)O)NC(=O)[C@H](CSSC[C@H](NC(=O)[C@@H](N)Cc4ccc(O)cc4)C(=O)N[C@@H](CCC(N)=O)C(=O)N[C@@H](CCCCN)C(=O)N[C@@H](Cc4c[nH]c5ccccc45)C(=O)N[C@@H](CCSC)C(=O)N[C@@H](Cc4c[nH]c5ccccc45)C(=O)N[C@@H](CCC(=O)O)C(=O)N3)NC2=O)C(=O)N[C@@H](CCCCN)C(=O)N[C@@H](CC(C)C)C(=O)N[C@@H](Cc2c[nH]c3ccccc23)C(=O)N1)[C@@H](C)CC)C(N)=O [T8 Glu mutant]
pIC50 (human NaV1.7; [4]): 5.41 | pIC50 (human NaV1.5; [5]): < 5.00 | pIC50 (human NaV1.4; [6]): < 5.00

CC[C@H](C)[C@H](NC(=O)[C@@H](NC(=O)[C@H](CCCCN)NC(=O)[C@H](CCCNC(=N)N)NC(=O)[C@@H]1CSSC[C@@H]2NC(=O)[C@H](C)NC(=O)[C@H](CCCNC(=N)N)NC(=O)[C@H](CCCCN)NC(=O)[C@H](CO)NC(=O)[C@H](CC(=O)O)NC(=O)[C@@H]3CSSC[C@H](NC(=O)[C@H](CCC(=O)O)NC(=O)[C@H](CC(C)C)NC(=O)CNC(=O)[C@H](CCC(=O)O)NC(=O)[C@H](CSSC[C@H](NC(=O)[C@@H](N)Cc4ccc(O)cc4)C(=O)N[C@@H](CCC(N)=O)C(=O)N[C@@H](CCCCN)C(=O)N[C@@H](Cc4c[nH]c5ccccc45)C(=O)N[C@@H](CCSC)C(=O)N[C@@H](Cc4c[nH]c5ccccc45)C(=O)N[C@@H]([C@@H](C)O)C(=O)N3)NC2=O)C(=O)N[C@@H](CCCCN)C(=O)N[C@@H](CC(C)C)C(=O)N[C@@H](Cc2c[nH]c3ccccc23)C(=O)N1)[C@@H](C)CC)C(N)=O [R20 Glu mutant]
pIC50 (human NaV1.7; [4]): 6.66 | pIC50 (human NaV1.5; human, read-out: Glu mutant IWQ IC50 NaV1.5): < 5.30 | pIC50 (human NaV1.4; [6]): 5.74

CC[C@H](C)[C@H](NC(=O)[C@@H](NC(=O)[C@H](CCCCN)NC(=O)[C@H](CCCNC(=N)N)NC(=O)[C@@H]1CSSC[C@@H]2NC(=O)[C@H](C)NC(=O)[C@H](CCC(=O)O)NC(=O)[C@H](CCCCN)NC(=O)[C@H](CO)NC(=O)[C@H](CC(=O)O)NC(=O)[C@@H]3CSSC[C@H](NC(=O)[C@H](CCCNC(=N)N)NC(=O)[C@H](CC(C)C)NC(=O)CNC(=O)[C@H](CCC(=O)O)NC(=O)[C@H](CSSC[C@H](NC(=O)[C@@H](N)Cc4ccc(O)cc4)C(=O)N[C@@H](CCC(N)=O)C(=O)N[C@@H](CCCCN)C(=O)N[C@@H](Cc4c[nH]c5ccccc45)C(=O)N[C@@H](CCSC)C(=O)N[C@@H](Cc4c[nH]c5ccccc45)C(=O)N[C@@H]([C@@H](C)O)C(=O)N3)NC2=O)C(=O)N[C@@H](CCCCN)C(=O)N[C@@H](CC(C)C)C(=O)N[C@@H](Cc2c[nH]c3ccccc23)C(=O)N1)[C@@H](C)CC)C(N)=O [R13 Glu mutant]
pIC50 (human NaV1.7; [4]): 5.34 | pIC50 (human NaV1.5; [5]): < 5.00 | pIC50 (human NaV1.4; [6]): < 5.00

CC[C@H](C)[C@H](NC(=O)[C@@H](NC(=O)[C@H](CCCCN)NC(=O)[C@H](CCC(=O)O)NC(=O)[C@@H]1CSSC[C@@H]2NC(=O)[C@H](C)NC(=O)[C@H](CCCNC(=N)N)NC(=O)[C@H](CCCCN)NC(=O)[C@H](CO)NC(=O)[C@H](CC(=O)O)NC(=O)[C@@H]3CSSC[C@H](NC(=O)[C@H](CCCNC(=N)N)NC(=O)[C@H](CC(C)C)NC(=O)CNC(=O)[C@H](CCC(=O)O)NC(=O)[C@H](CSSC[C@H](NC(=O)[C@@H](N)Cc4ccc(O)cc4)C(=O)N[C@@H](CCC(N)=O)C(=O)N[C@@H](CCCCN)C(=O)N[C@@H](Cc4c[nH]c5ccccc45)C(=O)N[C@@H](CCSC)C(=O)N[C@@H](Cc4c[nH]c5ccccc45)C(=O)N[C@@H]([C@@H](C)O)C(=O)N3)NC2=O)C(=O)N[C@@H](CCCCN)C(=O)N[C@@H](CC(C)C)C(=O)N[C@@H](Cc2c[nH]c3ccccc23)C(=O)N1)[C@@H](C)CC)C(N)=O [R26 Glu mutant]
pIC50 (human NaV1.7; [4]): < 5.00 | pIC50 (human NaV1.5; [5]): < 5.00 | pIC50 (human NaV1.4; [6]): < 5.00

CC[C@H](C)[C@H](NC(=O)[C@@H](NC(=O)[C@H](CCCCN)NC(=O)[C@H](CCCNC(=N)N)NC(=O)[C@@H]1CSSC[C@@H]2NC(=O)[C@H](C)NC(=O)[C@H](CCCNC(=N)N)NC(=O)[C@H](CCCCN)NC(=O)[C@H](CO)NC(=O)[C@H](CC(=O)O)NC(=O)[C@@H]3CSSC[C@H](NC(=O)[C@H](CCCNC(=N)N)NC(=O)[C@H](CC(C)C)NC(=O)CNC(=O)[C@H](CCC(=O)O)NC(=O)[C@H](CSSC[C@H](NC(=O)[C@@H](N)Cc4ccc(O)cc4)C(=O)N[C@@H](CCC(N)=O)C(=O)N[C@@H](CCCCN)C(=O)N[C@@H](CCC(=O)O)C(=O)N[C@@H](CCSC)C(=O)N[C@@H](Cc4c[nH]c5ccccc45)C(=O)N[C@@H]([C@@H](C)O)C(=O)N3)NC2=O)C(=O)N[C@@H](CCCCN)C(=O)N[C@@H](CC(C)C)C(=O)N[C@@H](Cc2c[nH]c3ccccc23)C(=O)N1)[C@@H](C)CC)C(N)=O [W5 Glu mutant]
pIC50 (human NaV1.7; [4]): < 5.00 | pIC50 (human NaV1.5; [5]): < 5.00 | pIC50 (human NaV1.4; [6]): < 5.00

CC[C@H](C)[C@H](NC(=O)[C@@H](NC(=O)[C@H](CCCCN)NC(=O)[C@H](CCCNC(=N)N)NC(=O)[C@@H]1CSSC[C@@H]2NC(=O)[C@H](C)NC(=O)[C@H](CCCNC(=N)N)NC(=O)[C@H](CCC(=O)O)NC(=O)[C@H](CO)NC(=O)[C@H](CC(=O)O)NC(=O)[C@@H]3CSSC[C@H](NC(=O)[C@H](CCCNC(=N)N)NC(=O)[C@H](CC(C)C)NC(=O)CNC(=O)[C@H](CCC(=O)O)NC(=O)[C@H](CSSC[C@H](NC(=O)[C@@H](N)Cc4ccc(O)cc4)C(=O)N[C@@H](CCC(N)=O)C(=O)N[C@@H](CCCCN)C(=O)N[C@@H](Cc4c[nH]c5ccccc45)C(=O)N[C@@H](CCSC)C(=O)N[C@@H](Cc4c[nH]c5ccccc45)C(=O)N[C@@H]([C@@H](C)O)C(=O)N3)NC2=O)C(=O)N[C@@H](CCCCN)C(=O)N[C@@H](CC(C)C)C(=O)N[C@@H](Cc2c[nH]c3ccccc23)C(=O)N1)[C@@H](C)CC)C(N)=O [K12 Glu mutant]
pIC50 (human NaV1.7; [4]): 6.12 | pIC50 (human NaV1.5; [5]): < 5.00 | pIC50 (human NaV1.4; [6]): < 5.00

CC[C@H](C)[C@H](NC(=O)[C@@H](NC(=O)[C@H](CCC(=O)O)NC(=O)[C@H](CCCNC(=N)N)NC(=O)[C@@H]1CSSC[C@@H]2NC(=O)[C@H](C)NC(=O)[C@H](CCCNC(=N)N)NC(=O)[C@H](CCCCN)NC(=O)[C@H](CO)NC(=O)[C@H](CC(=O)O)NC(=O)[C@@H]3CSSC[C@H](NC(=O)[C@H](CCCNC(=N)N)NC(=O)[C@H](CC(C)C)NC(=O)CNC(=O)[C@H](CCC(=O)O)NC(=O)[C@H](CSSC[C@H](NC(=O)[C@@H](N)Cc4ccc(O)cc4)C(=O)N[C@@H](CCC(N)=O)C(=O)N[C@@H](CCCCN)C(=O)N[C@@H](Cc4c[nH]c5ccccc45)C(=O)N[C@@H](CCSC)C(=O)N[C@@H](Cc4c[nH]c5ccccc45)C(=O)N[C@@H]([C@@H](C)O)C(=O)N3)NC2=O)C(=O)N[C@@H](CCCCN)C(=O)N[C@@H](CC(C)C)C(=O)N[C@@H](Cc2c[nH]c3ccccc23)C(=O)N1)[C@@H](C)CC)C(N)=O [K27 Glu mutant]
pIC50 (human NaV1.7; [4]): 6.13 | pIC50 (human NaV1.5; [5]): < 5.00 | pIC50 (human NaV1.4; [6]): < 5.00

From article PMC5933747 (PLoS ONE, 2018)
